System: A. tumefaciens NTL4
Format: cell-based, Agrobacterium tumefaciens
Conditions: for highest expression level (green fluorescence intensity, sfgfp reporter): highest induction concentration 10^3 μM; for basal expression level (green fluorescence intensity, sfgfp reporter): lowest induction concentration 10^−3 μM
Description: GFP measurement. An inoculum of A. tumefaciens was grown overnight to stationary phase and then transferred to fresh media at a 1:100 dilution. The new inocula were added with inducers to a final concentration of 1×10^−3 to 1×10^3 μmol/ml when their optical density at 600 nm (OD600) reached 0.5. After 6 h of incubation, cells were collected and resuspended in 1×PBS buffer. Then 100 μL of suitably diluted cultures were added into 96-well microtiter plates. OD600 and relative green fluorescence were measured by a BioTek® microplate reader H1. Congo red plate assay. The dye was dissolved in ddH2O at 20 mg ml^−1 and passed through 0.2 μm filters immediately. Four ml of filtered Congo Red was added per L (final concentration: 80 μg/ml) to generate LB-CR agar medium. The overnight cultured cultures were diluted to an OD600 of 1.0. 10 μl cultures were plated on LB-CR agar with appropriate antibiotics, followed by incubation at 30° C. for 24 hours.
A reliable induction system is required to achieve precise control of gene expression. […] An ori from the broad host-range plasmid pBBR1, which propagates in both E. coli and A. tumefaciens, was utilized for the origin of replication (Szpirer et al., J Bacteriol. 183:2101-2110, 2001). To evaluate the performance of these inducible systems, a green fluorescence protein gene (sfgfp) was utilized as a reporter gene, and placed under the control of the corresponding inducible promoters, Ptac, Pcym, Pvan, PBAD, Pug and Psal, respectively. The repressor genes of the inducible systems (lacI, cymR, vanR, araE, ttgR and nahR) were driven by a common constitutive promoter (Pcon). The resulting inducible “expression circuits” were transformed into A. tumefaciens NTL4.
To evaluate these induction systems, green fluorescence intensities of cells transformed with the plasmids were measured at various concentrations of inducers, ranging from 10^−3 to 10^3 μM.

Compound | highest expression level (green fluorescence intensity, sfgfp reporter) | basal expression level (green fluorescence intensity, sfgfp reporter)
O=C[C@@H](O)[C@H](O)[C@H](O)CO [Ara, arabinose] | 1.8×10^3 | 5.5×10^2
CC(C)c1ccc(C(=O)O)cc1 [Cum, cumic acid] | 3×10^4 | 1.4×10^2
CC(C)S[C@@H]1O[C@H](CO)[C@H](O)[C@H](O)[C@H]1O [IPTG, β-d-1-thiogalactopyranoside] | 5.2×10^5 | 6.6×10^4
O=C1C[C@@H](c2ccc(O)cc2)Oc2cc(O)cc(O)c21 [Nar, naringenin] | 1.2×10^4 | 1.8×10^2
COc1cc(C(=O)O)ccc1O [Van, vanillic acid] | 7.7×10^4 | 3.1×10^2
